Assay results from EP0039860A1, “Surfactants, their preparation and their use in cosmetic cleansing compositions, and cosmetic cleansing compositions mild to the skin containing them” (Henkel Kommanditgesellschaft auf Aktien, priority 1980, dated 1981).

Test system: Zein
Test: Zein test (skin compatibility: nitrogen solubilised from zein by surfactant solution, micro-Kjeldahl)
Set-up: species or system Mais
Details: 20 %ig surfactant solution, pH 7; 40 ml with 2 g Zein, 1 Stunde, 35° C; lower Zein number = better skin compatibility
Excerpt: Zur Bestimmung der Hautfreundlichkeit der erfindungsgemäßen neuartigen Tenside wurde der Zein-Test durchgeführt. Als Testprodukt diente das Neutralisationsprodukt von Fettalkohol-C12-C14-ether-monoschwefelsäureester mit circa 2 Mol Ethylenoxid mit N-ß-Hydroxyethyl-N-methyl- glucamin (Produkt A). Als Vergleichssubstanzen dienten Nonylbenzolsulfonat (Na-Salz), Natriumlaurylsulfat und Natrium-Fettalkohol-C12-C14-ethersulfat mit 2-Ethylenoxidgruppen im Molekül.
Die bei dem Zeintest erhaltene Zeinzahl gibt an, wieviel mg Stickstoff in 100 ml einer Tensidlösung enthalten sind, wenn diese 1 Stunde lang bei 35° C mit 2 g Zein versetzt wird. Je niedriger die Zeinzahl, um so besser ist die Hautverträglichieit des Produktes. Der Zein-Test wird in der nachfolgend beschriebenen Weise durchgeführt:
1. Ansetzen der Stammlösunsen:
Die 1/20 n Natronlauge wird mit Benzoesäure (DAB 6) eingestellt. Dazu werden circa 40 bis 50 mg Benzoesäure in einen 100 ml Erlenmeyerkolben eingewogen. und in ungefähr 25 ml neutralisiertem Ethylalkohol gelöst. Zum Neutralisieren wird der Alkohol mit einigen Tropfen verdünnter Natronlauge gegen Phenolphthalein bis zur bleibenden Rosafärbung versetzt. Die gelöste Benzoesäure wird nun mit der 1/20 n Natronlauge bis zur bleibenden Rosafärbung titriert und der Faktor berechnet: [drawing 2]
1.2. Schwefelsäure 1/20 n
Aus einer Mikrobürette läßt man 10 ml der 1/20 n Schwefelsäure in einen 100 ml Erlenmeyerkolben einlaufen, gibt 5 Tropfen Tashiro-Indikator hinzu und bringt die Vorlage am Destillierapparat an. In den Destillierkolben gibt man 20 ml 25 %ige Natronlauge, verdünnt mit destilliertem Wasser bis zur Hälfte des Volumens und destilliert 7 bis 10 Minuten. Die Vorlage wird nun abgenommen, und, nachdem mit etwas destilliertem Wasser das in Schwefelsäure eintauchende Glasrohr abgespült wurde, titriert man mit 1/20 n Natronlauge von violett auf blaugrün. Der erhaltene Wert ist der Blind-_ wert, der auch gleichzeitig eine Kontrolle des Destillier-Apparates ist und regelmäßig bestimmt wird. Diese Zahl wird der Berechnung des Stickstoffgehaltes zugrunde gelegt.
[…] Methylrot in 300 ml Ethanol und 0,40 g Methylenblau in 400 ml 50 %igem Ethanol.
1.4. 25 %ige Natronlauge aus NaOH-Plätzchen.
1.5. Das zu prüfende Tensid wird als x-prozentige Lösung mit destilliertem Wasser angesetzt und auf pH 7 eingestellt.
2. Aufbereitung des Zein:
Das verwendete Zein aus Mais (MG 20.000 - 30.000; ~98,5 % Protein) wird im Vakuumtrockenschrank bei maximal 40° C bis zur Gewichtskonstanz getrocknet.
3. Durchführung des Tests:
In eine 50 ml-Enghalsflasche mit Schraubverschluß werden 40 ml Tensidlösung pipettiert und in einem Wasserbad auf 35° C temperiert. […]

Molecule	Zein-Zahl [mg Stickstoff in 100 ml]
CCCCCCCCCCCCOS(=O)(=O)O [Natriumlaurylsulfat]	535
Natrium-Fettalkohol-C12-C14-ethersulfat mit 2-Ethylenoxidgruppen im Molekül [Fettalkohol-C12-C14-ethersulfat mit 2 EO]	329
Neutralisationsprodukt aus N-β-Hydroxyethyl-N-methylglucamin und Fettalkohol-C12-C14-ethermonoschwefelsäureester mit circa 2 Mol Ethylenoxid	223
Nonylbenzolsulfonat (Na-Salz)	620
